# Data from patent US6069150A, “Use of derivatives of tetrahydro-beta-carbolines as antimetastatic agents” (F. Hoffman-La Roche AG, priority 1996, dated 2000).
# Like-named read-outs stand apart in the source and are kept apart here.
# Experiments:
# [1] = target: T1, MMP8 (human neutrophil collagenase) (Homo sapiens, UniProt P22894); assay: in vitro test of inhibition of MMP8 (human neutrophil collagenase), fluorescent substrate degradation by catalytic domain of MMP8; format: biochemical; settings: for inhibition at 0.1 µg/mL: conc. 0.1 μg/ml
# T1 construct: by means of the catalytic domain of MMP8
# Excerpt: The compounds of the present invention have been tested in a pharmacological "in vitro" test of inhibition of MMP8 (human neutrophil collagenase). Said test provides for the determination via fluorescence of the inhibition of the degradation of a fluorescent substrate (DNP-Pro-Leu-Gly-Leu-Trp-Ala-D-Arg-NH2, M1855 Bachem) by means of the catalytic domain of MMP8.
# 1) DNP-substrate=DNP-Pro-Leu-Gly-Leu-Trp-Ala-D-Arg-NH2 (M1855 Bachem), M.W. 977.1 g/mol, concentration 25 (μM in DMSO; 2) measurement buffer=50 mM TRIS/100 mM NaCl/10 mM CaCl2.2H2 O, adjusted at pH 7.6 with hydrochloric acid. 3) Enzyme=catalytic domain of MMP8 (92 Kda), concentration 0.055 mg/ml in TRIS buffer. Substrate and enzyme are maintained at 0° C. with ice bath.
# Total volume=1 ml of solution kept under stirring in a cuvette.
# 0.01 ml of inhibitor (10 (g/ml).
# It is measured the fluorescence at 346 nm both of the control solution (without inhibitor) and of the solution containing the inhibitor. The inhibition of the catalytic activity of MMP8 results in the decrease in the DNP-substrate lysis, with related decrease in the fluorescence of the solution.
# The percentage of inhibition is expressed by the following formula:
# % Inhibition=100-(rel. unit/timewith inhibitor /rel.
# By repeating the experiment at different concentrations of inhibitor it is possible to determine the IC50 value.
# [2] = test system: human fibrosarcoma HT1080 cells; assay: test of chemoinvasion (HT1080 cells through Type IV collagen coated Transwell filters); format: cell-based
# Protocol: The compounds of the present invention have also shown activity in an "[…]" test of chemoinvasion. In the test of chemoinvasion the Costar Transwell chambers for cell culture (diameter: 6.5 mm; pore size: 8 μm) are coated with 100 μl of Type IV collagen (diluted solution 50 μg/ml, then evaporation overnight). With the same procedure the chambers are coated with a second layer of Type IV collagen (100 μl of solution at concentration 50 μg/ml). Before use, the chambers are rinsed twice with sterile water and incubated for about 1 hour at 37° C. in a serum-free medium (DMEM).
# The human fibrosarcoma HT1080 cells are harvested by trypsin-EDTA treatment, washed with DMEM+10% FCS and incubated for at least 30 minutes at 37° C. in the same medium. The cells are then washed with serum-free DMEM and resuspended in serum-free DMEM added with 0.1% BSA (fraction V), counted and diluted to obtain a final density of 3×10^5 cell/ml. […]
# Incubated filters are then washed with PBS, the cells are fixed 15 min in 4% paraformaldehyde, permeabilized in methanol (10 minutes, -20° C.) and stained with May-Grunwald-Giemsa. Cells which adhere to the top of the filters are removed with a cotton swab, filters are detached from the bottom of the chambers and analyzed with microscope to determine the number of cells on the lower side of the filters. […]
# [3] = MMP8 catalytic domain, DNP-substrate, fluorescence at 346 nm, read-out: IC50 (converted)
# T1 sequence (P22894 100-262 limits assumed): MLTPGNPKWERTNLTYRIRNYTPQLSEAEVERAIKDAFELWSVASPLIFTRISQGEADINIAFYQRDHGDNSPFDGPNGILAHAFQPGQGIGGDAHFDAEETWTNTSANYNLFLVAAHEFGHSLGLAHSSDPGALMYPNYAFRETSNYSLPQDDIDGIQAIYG
Compound,"IC50 [1, 3]",inhibition at 10 µg/mL ([1]; conc. 10 μg/ml),"IC50 ([2]; HT-1080, 24 h + 24 h)","inhibition at 0.1 µM ([2]; HT-1080, conc. 10^-7 M, 24 h + 24 h)",inhibition at 0.1 µg/mL [1],IC50 [1]
"COc1ccc2[nH]c3c(c2c1)CCNC3C(=O)O (centres unmarked) [6-methoxy-1,2,3,4-tetrahydronorharman-1-carboxylic acid]",203 nM,100%,200 nM,56.5%,,
"O=C(O)C1Cc2c([nH]c3ccccc23)CN1 (centres unmarked) [1,2,3,4-tetrahydronorharman-3-carboxylic acid]",324 nM,,,,100%,
"COc1ccc2[nH]c3c(c2c1)CCNC3 [6-methoxy-1,2,3,4-tetrahydronorharmane]",,,,,100%,297 nM
